target: T1, chimeric human H3 receptor (Homo sapiens, UniProt Q9Y5N1); assay: Chimeric human H3 receptor screening GTP binding assay (inhibition of histamine-stimulated GTP-gamma35S binding, Example 8); assay type: biochemical; settings: 1 h; assay described in Example 8; symbol "!" in column headed Ki; read-out: Ki ("!": percent inhibition of agonist-induced GTP-gammaS binding to H3)
T1 construct: rat Galpha-i2 (Gnai2, rat); made in house; host or cells: Sf9 insect cells (baculovirus); P2 membranes
T1 sequence (Q9Y5N1 with tags, fused parts or gaps): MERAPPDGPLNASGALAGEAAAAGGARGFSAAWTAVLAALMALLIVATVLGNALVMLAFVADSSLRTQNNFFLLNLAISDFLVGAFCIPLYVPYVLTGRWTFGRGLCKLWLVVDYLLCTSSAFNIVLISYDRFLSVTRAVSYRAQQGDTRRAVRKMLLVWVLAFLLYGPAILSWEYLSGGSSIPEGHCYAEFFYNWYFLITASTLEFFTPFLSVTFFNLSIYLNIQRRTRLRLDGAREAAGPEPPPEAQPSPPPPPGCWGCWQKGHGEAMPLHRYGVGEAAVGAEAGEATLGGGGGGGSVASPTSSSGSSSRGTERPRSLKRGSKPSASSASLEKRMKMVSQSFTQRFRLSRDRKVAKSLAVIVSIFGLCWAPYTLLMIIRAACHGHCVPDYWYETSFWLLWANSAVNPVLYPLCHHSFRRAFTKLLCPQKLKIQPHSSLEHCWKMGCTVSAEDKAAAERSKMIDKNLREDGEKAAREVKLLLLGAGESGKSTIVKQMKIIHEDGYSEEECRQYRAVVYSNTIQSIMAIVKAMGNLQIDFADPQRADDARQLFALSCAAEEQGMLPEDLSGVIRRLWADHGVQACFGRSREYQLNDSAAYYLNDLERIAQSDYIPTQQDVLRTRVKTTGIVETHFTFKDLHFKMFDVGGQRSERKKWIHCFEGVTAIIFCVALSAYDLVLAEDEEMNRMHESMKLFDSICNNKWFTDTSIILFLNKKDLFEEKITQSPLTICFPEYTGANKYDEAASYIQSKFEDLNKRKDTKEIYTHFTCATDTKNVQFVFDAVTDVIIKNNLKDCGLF
In short: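 Compound tested at 4 μM against 1 μM histamine stimulation; 125 pM GTP-gamma35S binding measured by filtration and scintillation after 60 min at room temperature. Membranes from Sf9 cells expressing chimeric human H3 plus G-protein subunits, in Tris pH 7.4/NaCl/MgCl2/GDP buffer; values are % inhibition after nonspecific subtraction.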

Row | inhibition at 4 µM [%] | SMILES
1 | ≥ 90 | Cc1oc(C(C)(C)C)cc1C(=O)N1CCc2cnc(N3CCN(C4CCC4)CC3)nc2CC1 [Compound 466, 7-(5-tert-butyl-2-methyl-3-furoyl)-2-(4-cyclobutylpiperazin-1-yl)-6,7,8,9-tetrahydro-5H-pyrimido[4,5-d]azepine]
2 | ≥ 90 | O=C(c1cccnc1Sc1ccc(Cl)cc1)N1CCc2cnc(N3CCN(C4CCC4)CC3)nc2CC1 [Compound 493, 7-({2-[(4-chlorophenyl)thio]pyridin-3-yl}carbonyl)-2-(4-cyclobutylpiperazin-1-yl)-6,7,8,9-tetrahydro-5H-pyrimido[4,5-d]azepine]
3 | ≥ 90 | CNc1ccccc1C(=O)N1CCc2cnc(N3CCN(C4CCC4)CC3)nc2CC1 [Compound 534, 2-{[2-(4-cyclobutylpiperazin-1-yl)-5,6,8,9-tetrahydro-7H-pyrimido[4,5-d]azepin-7-yl]carbonyl}-N-methylaniline]
4 | ≥ 90 | CCCc1c(C(=O)N2CCc3cnc(N4CCN(C5CCC5)CC4)nc3CC2)cnn1-c1ccc(Cl)cc1 [Compound 512, 7-{[1-(4-chlorophenyl)-5-propyl-1H-pyrazol-4-yl]carbonyl}-2-(4-cyclobutylpiperazin-1-yl)-6,7,8,9-tetrahydro-5H-pyrimido[4,5-d]azepine]
5 | ≥ 90 | Cc1oc(-c2ccccc2)cc1C(=O)N1CCc2cnc(N3CCN(C4CCC4)CC3)nc2CC1 [Compound 469, 2-(4-cyclobutylpiperazin-1-yl)-7-(2-methyl-5-phenyl-3-furoyl)-6,7,8,9-tetrahydro-5H-pyrimido[4,5-d]azepine]
6 | ≥ 90 | O=C(c1ccccc1Cl)N1CCc2cnc(N3CCN(C4CCC4)CC3)nc2CC1 [Compound 436, 7-(2-chlorobenzoyl)-2-(4-cyclobutylpiperazin-1-yl)-6,7,8,9-tetrahydro-5H-pyrimido[4,5-d]azepine]
7 | ≥ 90 | Cc1cccc(/C=C/C(=O)N2CCc3cnc(N4CCN(C5CCC5)CC4)nc3CC2)c1 [Compound 563, 2-(4-cyclobutylpiperazin-1-yl)-7-[(2E)-3-(3-methylphenyl)prop-2-enoyl]-6,7,8,9-tetrahydro-5H-pyrimido[4,5-d]azepine]
8 | ≥ 90 | O=C(c1ccc(F)cc1F)N1CCc2cnc(N3CCN(C4CCC4)CC3)nc2CC1 [Compound 392, 2-(4-cyclobutylpiperazin-1-yl)-7-(2,4-difluorobenzoyl)-6,7,8,9-tetrahydro-5H-pyrimido[4,5-d]azepine]
9 | ≥ 90 | O=C(c1cc(-c2ccccc2)nc2ccccc12)N1CCc2cnc(N3CCN(C4CCC4)CC3)nc2CC1 [Compound 488, 2-(4-cyclobutylpiperazin-1-yl)-7-[(2-phenylquinolin-4-yl)carbonyl]-6,7,8,9-tetrahydro-5H-pyrimido[4,5-d]azepine]
10 | ≥ 90 | COc1cc(C(=O)N2CCc3cnc(N4CCN(C5CCC5)CC4)nc3CC2)cc(OC)c1OC [Compound 384, 2-(4-cyclobutylpiperazin-1-yl)-7-(3,4,5-trimethoxybenzoyl)-6,7,8,9-tetrahydro-5H-pyrimido[4,5-d]azepine]
11 | ≥ 90 | CSc1ccc(C(=O)N2CCc3cnc(N4CCN(C5CCC5)CC4)nc3CC2)s1 [Compound 448, 2-(4-cyclobutylpiperazin-1-yl)-7-{[5-(methylthio)-2-thienyl]carbonyl}-6,7,8,9-tetrahydro-5H-pyrimido[4,5-d]azepine]
12 | ≥ 90 | CCn1nc(C)c(Br)c1C(=O)N1CCc2cnc(N3CCN(C4CCC4)CC3)nc2CC1 [Compound 509, 7-[(4-bromo-1-ethyl-3-methyl-1H-pyrazol-5-yl)carbonyl]-2-(4-cyclobutylpiperazin-1-yl)-6,7,8,9-tetrahydro-5H-pyrimido[4,5-d]azepine]

same assay, conditions: 1 h; assay of Example 8; symbol "!" in column headed Ki; read-out: percent inhibition of agonist-induced GTP-gammaS binding to H3

Row | inhibition at 4 µM [%] | SMILES
13 | ≥ 90 | CCCC(C)C(=O)N1CCc2cnc(N3CCN(C4CCC4)CC3)nc2CC1 (stereo not drawn) [Compound 224, 2-(4-cyclobutylpiperazin-1-yl)-7-(2-methylpentanoyl)-6,7,8,9-tetrahydro-5H-pyrimido[4,5-d]azepine]
14 | ≥ 90 | CC(C)C(C(=O)N1CCc2cnc(N3CCN(C4CCC4)CC3)nc2CC1)c1ccccc1 (stereo not drawn) [Compound 349, 2-(4-cyclobutylpiperazin-1-yl)-7-(3-methyl-2-phenylbutanoyl)-6,7,8,9-tetrahydro-5H-pyrimido[4,5-d]azepine]
15 | ≥ 90 | CC(Oc1cccc(Cl)c1)C(=O)N1CCc2cnc(N3CCN(C4CCC4)CC3)nc2CC1 (stereo not drawn) [Compound 340, 7-[2-(3-chlorophenoxy)propanoyl]-2-(4-cyclobutylpiperazin-1-yl)-6,7,8,9-tetrahydro-5H-pyrimido[4,5-d]azepine]
16 | ≥ 90 | CCOc1ccccc1CC(=O)N1CCc2cnc(N3CCN(C4CCC4)CC3)nc2CC1 [Compound 307, 2-(4-cyclobutylpiperazin-1-yl)-7-[(2-ethoxyphenyl)acetyl]-6,7,8,9-tetrahydro-5H-pyrimido[4,5-d]azepine]
17 | ≥ 90 | c1ccc(CN2CCc3cnc(N4CCN(C5CCC5)CC4)nc3CC2)cc1 [Compound 229, 7-benzyl-2-(4-cyclobutylpiperazin-1-yl)-6,7,8,9-tetrahydro-5H-pyrimido[4,5-d]azepine]
18 | ≥ 90 | O=C(c1ccc(C(F)(F)F)cc1)N1CCc2cnc(N3CCN(C4CCC4)CC3)nc2CC1 [Compound 269, 2-(4-cyclobutylpiperazin-1-yl)-7-[4-(trifluoromethyl)benzoyl]-6,7,8,9-tetrahydro-5H-pyrimido[4,5-d]azepine]
19 | ≥ 90 | O=C(Cc1ccc(Br)cc1)N1CCc2cnc(N3CCN(C4CCC4)CC3)nc2CC1 [Compound 290, 7-[(4-bromophenyl)acetyl]-2-(4-cyclobutylpiperazin-1-yl)-6,7,8,9-tetrahydro-5H-pyrimido[4,5-d]azepine]
20 | ≥ 90 | Cc1cccc(OCC(=O)N2CCc3cnc(N4CCN(C5CCC5)CC4)nc3CC2)c1 [Compound 322, 2-(4-cyclobutylpiperazin-1-yl)-7-[(3-methylphenoxy)acetyl]-6,7,8,9-tetrahydro-5H-pyrimido[4,5-d]azepine]
21 | ≥ 90 | COc1ccc(CN2CCc3cnc(N4CCN(C5CCC5)CC4)nc3CC2)c(OC)c1 [Compound 243, 2-(4-cyclobutylpiperazin-1-yl)-7-(2,4-dimethoxybenzyl)-6,7,8,9-tetrahydro-5H-pyrimido[4,5-d]azepine]
22 | ≥ 90 | CCCCN1CCc2cnc(N3CCN(C4CCC4)CC3)nc2CC1 [Compound 248, 7-butyl-2-(4-cyclobutylpiperazin-1-yl)-6,7,8,9-tetrahydro-5H-pyrimido[4,5-d]azepine]
23 | ≥ 90 | COc1ccc(Br)cc1CC(=O)N1CCc2cnc(N3CCN(C4CCC4)CC3)nc2CC1 [Compound 311, 7-[(5-bromo-2-methoxyphenyl)acetyl]-2-(4-cyclobutylpiperazin-1-yl)-6,7,8,9-tetrahydro-5H-pyrimido[4,5-d]azepine]
24 | ≥ 90 | O=C(/C=C/c1ccccc1)N1CCc2cnc(N3CCN(C4CCC4)CC3)nc2CC1 [Compound 225, 2-(4-cyclobutylpiperazin-1-yl)-7-[(2E)-3-phenylprop-2-enoyl]-6,7,8,9-tetrahydro-5H-pyrimido[4,5-d]azepine]
25 | ≥ 90 | COc1cccc(CC(=O)N2CCc3cnc(N4CCN(C5CCC5)CC4)nc3CC2)c1 [Compound 273, 2-(4-cyclobutylpiperazin-1-yl)-7-[(3-methoxyphenyl)acetyl]-6,7,8,9-tetrahydro-5H-pyrimido[4,5-d]azepine]

same assay, conditions: symbol ! in Ki; test compound 4 μM, 1 μM histamine; read-out: percent inhibition of agonist-induced GTP-gammaS binding to H3

Row | inhibition at 4 µM [%] | SMILES
26 | ≥ 90 | c1ccc2ncc(CN3CCc4nc(N5CCN(C6CCC6)CC5)ncc4C3)cc2c1 [Compound 618, 2-(4-cyclobutylpiperazin-1-yl)-6-(quinolin-3-ylmethyl)-5,6,7,8-tetrahydropyrido[4,3-d]pyrimidine]
27 | ≥ 90 | COc1ccccc1CN1CCc2c(ncnc2N2CCN(C3CCC3)CC2)C1 [Compound 78, 4-(4-cyclobutylpiperazin-1-yl)-7-(2-methoxybenzyl)-5,6,7,8-tetrahydropyrido[3,4-d]pyrimidine]
28 | ≥ 90 | CC(C)C(C)N1CCc2c(ncnc2N2CCN(C3CCC3)CC2)C1 (stereo not drawn) [Compound 121, 4-(4-cyclobutylpiperazin-1-yl)-7-(1,2-dimethylpropyl)-5,6,7,8-tetrahydropyrido[3,4-d]pyrimidine]
29 | ≥ 90 | Clc1ccccc1CN1CCc2c(ncnc2N2CCN(C3CCC3)CC2)C1 [Compound 98, 7-(2-chlorobenzyl)-4-(4-cyclobutylpiperazin-1-yl)-5,6,7,8-tetrahydropyrido[3,4-d]pyrimidine]
30 | ≥ 90 | Clc1ccc(CN2CCc3nc(N4CCN(C5CCC5)CC4)ncc3C2)c(Cl)c1 [Compound 646, 2-(4-cyclobutylpiperazin-1-yl)-6-(2,4-dichlorobenzyl)-5,6,7,8-tetrahydropyrido[4,3-d]pyrimidine]
31 | ≥ 90 | c1nc(N2CCN(C3CCC3)CC2)nc2c1CN(CC1CCOC1)CC2 (stereo not drawn) [Compound 636, 2-(4-cyclobutylpiperazin-1-yl)-6-(tetrahydrofuran-3-ylmethyl)-5,6,7,8-tetrahydropyrido[4,3-d]pyrimidine]
32 | ≥ 90 | CCC(C)CN1CCc2ncnc(N3CCN(C4CCC4)CC3)c2CC1 (stereo not drawn) [Compound 167, 4-(4-cyclobutylpiperazin-1-yl)-7-(2-methylbutyl)-6,7,8,9-tetrahydro-5H-pyrimido[4,5-d]azepine]
33 | ≥ 90 | COc1ccc(OC)c(C(C)N2CCc3c(ncnc3N3CCN(C4CCC4)CC3)C2)c1 (stereo not drawn) [Compound 132, 4-(4-cyclobutylpiperazin-1-yl)-7-[1-(2,5-dimethoxyphenyl)ethyl]-5,6,7,8-tetrahydropyrido[3,4-d]pyrimidine]
